Key:
[1] = Inhibitory activity against the wheat germ DNA topoisomerase I
[2] = as above; remark: listed apart in the source
[3] = Inhibitory activity against the calf thymus DNA topoisomerase I

IC50 [1] [µM]	IC50 [2] [µM]	IC50 [3] [µM]	SMILES
50			c1coc(-c2cc(-c3cccs3)nc(-c3cccs3)c2)c1 [4-Furan-2-yl-2,6-di-thiophen-2-yl-pyridine]
400			c1coc(-c2ccnc(-c3cccs3)c2)c1 [4-Furan-2-yl-2-thiophen-2-yl-pyridine]
	< 10	200	C(=C\c1ccco1)/c1cc(-c2ccco2)cc(-c2cccs2)n1 [4-Furan-2-yl-2-((E)-2-furan-2-yl-vinyl)-6-thiophen-2-yl-pyridine]
